What was measured:
[1] = 101 kPa, Liquid; for electrical conductivity: Frequency=0.0005 MHz, crison conductivimeter
[2] = xn = mol fraction of the nth substance listed; settings: 101 kPa, Liquid; for electrical conductivity: Frequency=0.0005 MHz, crison conductivimeter

O [water]
[1]
Settings	viscosity [mPa·s]
288.15 K	1.137
298.15 K	0.89
308.15 K	0.719
318.15 K	0.597

CCCCCCn1cc[n+](C)c1.F[B-](F)(F)F [1-hexyl-3-methylimidazolium tetrafluoroborate] + O
[2]
Settings	electrical conductivity [S/m]	viscosity [mPa·s]
288.15 K, x2 = 0	–	357.5
288.15 K, x2 = 0.1101	–	200.6
288.15 K, x2 = 0.1679	–	151
288.15 K, x2 = 0.2812	–	100.3
288.15 K, x2 = 0.3581	–	65.4
288.15 K, x2 = 0.4907	0.625	–
288.15 K, x2 = 0.4987	–	38.7
288.15 K, x2 = 0.5075	–	36.4
288.15 K, x2 = 0.573	–	29.4
288.15 K, x2 = 0.72	–	17.55
298.15 K, x2 = 0	0.126	190.9
298.15 K, x2 = 0.1101	–	113.9
298.15 K, x2 = 0.1164	0.202	–
298.15 K, x2 = 0.1679	–	89.1
298.15 K, x2 = 0.2364	0.337	–
298.15 K, x2 = 0.2812	–	61.6
298.15 K, x2 = 0.3232	0.484	–
298.15 K, x2 = 0.3581	–	41.6
298.15 K, x2 = 0.3942	0.627	–
298.15 K, x2 = 0.4548	0.798	–
298.15 K, x2 = 0.4907	0.983	–
298.15 K, x2 = 0.4987	–	25.5
298.15 K, x2 = 0.5075	–	24
298.15 K, x2 = 0.5294	1.06	–
298.15 K, x2 = 0.573	–	19.6
298.15 K, x2 = 0.5896	1.31	–
298.15 K, x2 = 0.652	1.62	–
298.15 K, x2 = 0.7184	1.99	–
298.15 K, x2 = 0.72	–	10.82
308.15 K, x2 = 0	–	110.3
308.15 K, x2 = 0.1101	–	69.4
308.15 K, x2 = 0.1679	–	56.2
308.15 K, x2 = 0.2812	–	40.3
308.15 K, x2 = 0.3581	–	28.1
308.15 K, x2 = 0.4907	1.38	–
308.15 K, x2 = 0.4987	–	17.72
308.15 K, x2 = 0.5075	–	16.76
308.15 K, x2 = 0.573	–	13.83
308.15 K, x2 = 0.72	–	7.76
318.15 K, x2 = 0	–	68.5
318.15 K, x2 = 0.1101	–	45.1
318.15 K, x2 = 0.1679	–	37.5
318.15 K, x2 = 0.2812	–	27.8
318.15 K, x2 = 0.3581	–	19.89
318.15 K, x2 = 0.4907	1.65	–
318.15 K, x2 = 0.4987	–	12.92
318.15 K, x2 = 0.5075	–	12.25
318.15 K, x2 = 0.573	–	10.19
318.15 K, x2 = 0.72	–	5.85

CCCCCCn1cc[n+](C)c1.F[B-](F)(F)F [1-hexyl-3-methylimidazolium tetrafluoroborate]
[1]
Settings	electrical conductivity [S/m]	viscosity [mPa·s]
288.15 K	–	357.5
298.15 K	0.126	190.9
308.15 K	–	110.3
318.15 K	–	68.5

CCn1cc[n+](C)c1.F[B-](F)(F)F [1-ethyl-3-methylimidazolium tetrafluoroborate]
[1]
Settings	electrical conductivity [S/m]	viscosity [mPa·s]
288.15 K	–	55.5
298.15 K	1.63	36.9
308.15 K	–	26
318.15 K	–	19.17

CCCCn1cc[n+](C)c1.F[B-](F)(F)F [1-butyl-3-methylimidazolium tetrafluoroborate]
[1]
Settings	electrical conductivity [S/m]	viscosity [mPa·s]
288.15 K	–	173.5
298.15 K	0.352	99.2
308.15 K	–	61.3
318.15 K	–	40.4

CCn1cc[n+](C)c1.F[B-](F)(F)F [1-ethyl-3-methylimidazolium tetrafluoroborate] + O
[2]
Settings	electrical conductivity [S/m]	viscosity [mPa·s]
288.15 K, x2 = 0	–	55.5
288.15 K, x2 = 0.0985	–	36.2
288.15 K, x2 = 0.2191	–	23.88
288.15 K, x2 = 0.3053	–	18.26
288.15 K, x2 = 0.3982	–	13.26
288.15 K, x2 = 0.4916	–	10.29
288.15 K, x2 = 0.4933	4	–
288.15 K, x2 = 0.5989	–	7.28
288.15 K, x2 = 0.6991	–	5.43
288.15 K, x2 = 0.8029	–	3.18
288.15 K, x2 = 0.8991	–	2.32
298.15 K, x2 = 0	1.63	36.9
298.15 K, x2 = 0.0985	–	25.2
298.15 K, x2 = 0.2191	–	16.66
298.15 K, x2 = 0.3053	–	13.51
298.15 K, x2 = 0.3665	4.1	–
298.15 K, x2 = 0.3982	–	10.02
298.15 K, x2 = 0.4916	–	7.91
298.15 K, x2 = 0.4933	5.26	–
298.15 K, x2 = 0.5498	6.07	–
298.15 K, x2 = 0.5989	–	5.62
298.15 K, x2 = 0.6599	7.64	–
298.15 K, x2 = 0.6991	–	4.23
298.15 K, x2 = 0.7332	8.15	–
298.15 K, x2 = 0.7856	8.44	–
298.15 K, x2 = 0.8029	–	2.5
298.15 K, x2 = 0.8249	8.52	–
298.15 K, x2 = 0.8555	8.47	–
298.15 K, x2 = 0.8799	8.36	–
298.15 K, x2 = 0.8991	–	1.82
298.15 K, x2 = 0.8999	8.18	–
298.15 K, x2 = 0.9166	7.9	–
298.15 K, x2 = 0.9307	7.43	–
298.15 K, x2 = 0.9428	7.1	–
298.15 K, x2 = 0.9533	6.56	–
298.15 K, x2 = 0.9625	6.13	–
298.15 K, x2 = 0.9706	5.43	–
298.15 K, x2 = 0.9778	4.76	–
298.15 K, x2 = 0.9842	4.03	–
298.15 K, x2 = 0.99	2.95	–
298.15 K, x2 = 0.9952	1.79	–
308.15 K, x2 = 0	–	26
308.15 K, x2 = 0.0985	–	18.45
308.15 K, x2 = 0.2191	–	12.64
308.15 K, x2 = 0.3053	–	10.39
308.15 K, x2 = 0.3982	–	7.85
308.15 K, x2 = 0.4916	–	6.26
308.15 K, x2 = 0.4933	5.9	–
308.15 K, x2 = 0.5989	–	4.49
308.15 K, x2 = 0.6991	–	3.4
308.15 K, x2 = 0.8029	–	2.03
308.15 K, x2 = 0.8991	–	1.477
318.15 K, x2 = 0	–	19.17
318.15 K, x2 = 0.0985	–	14.01
318.15 K, x2 = 0.2191	–	9.9
318.15 K, x2 = 0.3053	–	8.23
318.15 K, x2 = 0.3982	–	6.33
318.15 K, x2 = 0.4916	–	5.09
318.15 K, x2 = 0.4933	6.95	–
318.15 K, x2 = 0.5989	–	3.68
318.15 K, x2 = 0.6991	–	2.81
318.15 K, x2 = 0.8029	–	1.696
318.15 K, x2 = 0.8991	–	1.2

O [water] + CCn1cc[n+](C)c1.F[B-](F)(F)F
[2], x1 = 1
Settings	viscosity [mPa·s]
288.15 K	1.137
298.15 K	0.89
308.15 K	0.719
318.15 K	0.597
